Reference: patent US11331299B2, “Medicinal use of serrulatane diterpenes” (The University of Sydney, priority 2016, dated 2022)
Read-outs that look alike come from different tables or passages of the source.

What was measured:
HDAC6 (h) = target: T1, HDAC6 (h) (Homo sapiens, UniProt Q9UBN7); test: Epigenetic enzyme assay, Histone deacetylase (HDACs); format: biochemical; settings: read-out: % Inhibition of Control Values
T1 sequence (Q9UBN7 1-1215): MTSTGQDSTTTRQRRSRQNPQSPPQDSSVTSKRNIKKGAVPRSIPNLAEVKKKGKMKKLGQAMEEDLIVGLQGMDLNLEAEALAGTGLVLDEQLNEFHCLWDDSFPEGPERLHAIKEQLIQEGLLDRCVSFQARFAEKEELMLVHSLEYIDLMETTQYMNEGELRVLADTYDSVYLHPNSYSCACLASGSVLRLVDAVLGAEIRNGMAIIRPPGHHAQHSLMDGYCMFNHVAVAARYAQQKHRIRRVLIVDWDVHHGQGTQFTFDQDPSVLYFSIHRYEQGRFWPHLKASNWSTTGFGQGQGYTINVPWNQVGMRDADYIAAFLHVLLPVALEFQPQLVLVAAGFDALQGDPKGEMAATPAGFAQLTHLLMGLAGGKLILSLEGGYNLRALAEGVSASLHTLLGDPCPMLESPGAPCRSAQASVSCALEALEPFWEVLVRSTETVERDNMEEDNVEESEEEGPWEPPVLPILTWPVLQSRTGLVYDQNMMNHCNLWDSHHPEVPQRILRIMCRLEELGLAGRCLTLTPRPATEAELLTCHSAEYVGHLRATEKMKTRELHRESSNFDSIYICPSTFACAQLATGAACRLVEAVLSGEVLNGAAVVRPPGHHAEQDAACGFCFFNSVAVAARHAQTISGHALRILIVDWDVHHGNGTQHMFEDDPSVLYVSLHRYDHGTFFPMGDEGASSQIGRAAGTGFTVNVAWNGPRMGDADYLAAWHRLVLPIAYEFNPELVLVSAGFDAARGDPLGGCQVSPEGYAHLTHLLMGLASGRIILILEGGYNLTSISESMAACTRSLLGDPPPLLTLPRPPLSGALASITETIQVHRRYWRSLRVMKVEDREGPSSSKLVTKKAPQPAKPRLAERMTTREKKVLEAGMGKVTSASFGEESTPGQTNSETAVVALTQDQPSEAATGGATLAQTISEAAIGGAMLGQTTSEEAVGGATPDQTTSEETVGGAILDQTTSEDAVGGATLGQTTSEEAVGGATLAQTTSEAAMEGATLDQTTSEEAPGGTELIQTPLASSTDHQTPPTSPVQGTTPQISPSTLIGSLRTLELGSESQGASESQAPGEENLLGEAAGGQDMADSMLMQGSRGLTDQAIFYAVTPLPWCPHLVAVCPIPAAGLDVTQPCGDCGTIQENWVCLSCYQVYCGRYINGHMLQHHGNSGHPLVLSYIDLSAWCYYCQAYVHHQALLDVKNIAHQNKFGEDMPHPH

CREBBP(h) = CREBBP(h) (Homo sapiens, UniProt Q92793); test: Epigenetic enzyme assay, Histone acetyltransferases (HATs); format: biochemical; settings: for inhibition at 10 µM: read-out: % Inhibition of Control Values; for IC50: Table 11, inhibition/concentration-response curve
CYP2C8 = target: T2, CYP2C8 (Homo sapiens, UniProt P10632); test: Cytochrome P450 Inhibition (CYP panel); format: in vitro ADME; settings: probe paclitaxel
T2 construct: Human liver microsomes; from tissue; host or cells: human liver microsomes
T2 sequence (P10632 1-490): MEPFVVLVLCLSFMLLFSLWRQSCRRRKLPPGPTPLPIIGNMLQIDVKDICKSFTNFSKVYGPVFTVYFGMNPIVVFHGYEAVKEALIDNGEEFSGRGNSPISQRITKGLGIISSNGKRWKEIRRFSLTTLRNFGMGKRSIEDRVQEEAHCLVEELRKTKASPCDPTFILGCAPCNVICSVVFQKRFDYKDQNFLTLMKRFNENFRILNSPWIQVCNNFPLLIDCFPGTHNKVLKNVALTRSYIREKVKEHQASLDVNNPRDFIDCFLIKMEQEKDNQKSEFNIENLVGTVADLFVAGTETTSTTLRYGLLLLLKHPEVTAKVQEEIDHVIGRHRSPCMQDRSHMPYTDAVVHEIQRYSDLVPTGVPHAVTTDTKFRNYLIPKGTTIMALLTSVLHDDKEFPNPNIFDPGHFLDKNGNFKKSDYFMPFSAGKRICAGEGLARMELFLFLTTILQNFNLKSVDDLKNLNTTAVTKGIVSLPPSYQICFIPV

ATAD2A (h) bromodomain = target: T3, ATAD2A (h) bromodomain (Homo sapiens, UniProt Q6PL18); test: Epigenetic binding assay, Bromodomain; settings: for inhibition at 10 µM: read-out: % Inhibition of Control Specific Binding
T3 construct: Bromodomain
T3 sequence (Q6PL18 980-1092 limits assumed): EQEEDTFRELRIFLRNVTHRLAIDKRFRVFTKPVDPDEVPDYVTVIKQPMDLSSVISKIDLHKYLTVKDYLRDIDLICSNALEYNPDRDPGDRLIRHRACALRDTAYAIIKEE

PRMT4 (h) = target: T4, PRMT4 (h) (Homo sapiens, UniProt Q86X55); test: Epigenetic enzyme assay, Methyltransferases (MTs); format: biochemical; settings: for inhibition at 10 µM: read-out: % Inhibition of Control Values; for IC50: Table 11, inhibition/concentration-response curve
T4 sequence (Q86X55 1-608): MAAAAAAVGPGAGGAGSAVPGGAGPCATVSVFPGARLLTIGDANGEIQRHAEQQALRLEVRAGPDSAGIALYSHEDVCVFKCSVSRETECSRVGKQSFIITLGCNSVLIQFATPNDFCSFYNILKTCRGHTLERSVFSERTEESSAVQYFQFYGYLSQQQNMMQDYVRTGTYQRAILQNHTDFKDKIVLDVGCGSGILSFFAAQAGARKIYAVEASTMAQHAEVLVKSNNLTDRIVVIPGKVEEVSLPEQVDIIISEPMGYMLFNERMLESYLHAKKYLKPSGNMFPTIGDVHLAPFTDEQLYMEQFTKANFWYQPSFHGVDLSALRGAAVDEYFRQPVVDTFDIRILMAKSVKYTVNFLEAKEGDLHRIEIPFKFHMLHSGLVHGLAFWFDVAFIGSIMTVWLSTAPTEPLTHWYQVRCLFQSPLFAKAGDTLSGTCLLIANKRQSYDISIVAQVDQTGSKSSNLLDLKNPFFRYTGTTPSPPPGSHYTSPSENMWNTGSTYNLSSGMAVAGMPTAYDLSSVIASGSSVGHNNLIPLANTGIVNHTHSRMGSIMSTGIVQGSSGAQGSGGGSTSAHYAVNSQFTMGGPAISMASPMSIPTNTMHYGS

[1] = human, human liver microsomes, read-out: % inhibition
[2] = CYP2C8 (paclitaxel sub.), Human liver microsomes, read-out: % Inhibition of Control Values

Sequence of CREBBP(h) (Q92793 whole entry): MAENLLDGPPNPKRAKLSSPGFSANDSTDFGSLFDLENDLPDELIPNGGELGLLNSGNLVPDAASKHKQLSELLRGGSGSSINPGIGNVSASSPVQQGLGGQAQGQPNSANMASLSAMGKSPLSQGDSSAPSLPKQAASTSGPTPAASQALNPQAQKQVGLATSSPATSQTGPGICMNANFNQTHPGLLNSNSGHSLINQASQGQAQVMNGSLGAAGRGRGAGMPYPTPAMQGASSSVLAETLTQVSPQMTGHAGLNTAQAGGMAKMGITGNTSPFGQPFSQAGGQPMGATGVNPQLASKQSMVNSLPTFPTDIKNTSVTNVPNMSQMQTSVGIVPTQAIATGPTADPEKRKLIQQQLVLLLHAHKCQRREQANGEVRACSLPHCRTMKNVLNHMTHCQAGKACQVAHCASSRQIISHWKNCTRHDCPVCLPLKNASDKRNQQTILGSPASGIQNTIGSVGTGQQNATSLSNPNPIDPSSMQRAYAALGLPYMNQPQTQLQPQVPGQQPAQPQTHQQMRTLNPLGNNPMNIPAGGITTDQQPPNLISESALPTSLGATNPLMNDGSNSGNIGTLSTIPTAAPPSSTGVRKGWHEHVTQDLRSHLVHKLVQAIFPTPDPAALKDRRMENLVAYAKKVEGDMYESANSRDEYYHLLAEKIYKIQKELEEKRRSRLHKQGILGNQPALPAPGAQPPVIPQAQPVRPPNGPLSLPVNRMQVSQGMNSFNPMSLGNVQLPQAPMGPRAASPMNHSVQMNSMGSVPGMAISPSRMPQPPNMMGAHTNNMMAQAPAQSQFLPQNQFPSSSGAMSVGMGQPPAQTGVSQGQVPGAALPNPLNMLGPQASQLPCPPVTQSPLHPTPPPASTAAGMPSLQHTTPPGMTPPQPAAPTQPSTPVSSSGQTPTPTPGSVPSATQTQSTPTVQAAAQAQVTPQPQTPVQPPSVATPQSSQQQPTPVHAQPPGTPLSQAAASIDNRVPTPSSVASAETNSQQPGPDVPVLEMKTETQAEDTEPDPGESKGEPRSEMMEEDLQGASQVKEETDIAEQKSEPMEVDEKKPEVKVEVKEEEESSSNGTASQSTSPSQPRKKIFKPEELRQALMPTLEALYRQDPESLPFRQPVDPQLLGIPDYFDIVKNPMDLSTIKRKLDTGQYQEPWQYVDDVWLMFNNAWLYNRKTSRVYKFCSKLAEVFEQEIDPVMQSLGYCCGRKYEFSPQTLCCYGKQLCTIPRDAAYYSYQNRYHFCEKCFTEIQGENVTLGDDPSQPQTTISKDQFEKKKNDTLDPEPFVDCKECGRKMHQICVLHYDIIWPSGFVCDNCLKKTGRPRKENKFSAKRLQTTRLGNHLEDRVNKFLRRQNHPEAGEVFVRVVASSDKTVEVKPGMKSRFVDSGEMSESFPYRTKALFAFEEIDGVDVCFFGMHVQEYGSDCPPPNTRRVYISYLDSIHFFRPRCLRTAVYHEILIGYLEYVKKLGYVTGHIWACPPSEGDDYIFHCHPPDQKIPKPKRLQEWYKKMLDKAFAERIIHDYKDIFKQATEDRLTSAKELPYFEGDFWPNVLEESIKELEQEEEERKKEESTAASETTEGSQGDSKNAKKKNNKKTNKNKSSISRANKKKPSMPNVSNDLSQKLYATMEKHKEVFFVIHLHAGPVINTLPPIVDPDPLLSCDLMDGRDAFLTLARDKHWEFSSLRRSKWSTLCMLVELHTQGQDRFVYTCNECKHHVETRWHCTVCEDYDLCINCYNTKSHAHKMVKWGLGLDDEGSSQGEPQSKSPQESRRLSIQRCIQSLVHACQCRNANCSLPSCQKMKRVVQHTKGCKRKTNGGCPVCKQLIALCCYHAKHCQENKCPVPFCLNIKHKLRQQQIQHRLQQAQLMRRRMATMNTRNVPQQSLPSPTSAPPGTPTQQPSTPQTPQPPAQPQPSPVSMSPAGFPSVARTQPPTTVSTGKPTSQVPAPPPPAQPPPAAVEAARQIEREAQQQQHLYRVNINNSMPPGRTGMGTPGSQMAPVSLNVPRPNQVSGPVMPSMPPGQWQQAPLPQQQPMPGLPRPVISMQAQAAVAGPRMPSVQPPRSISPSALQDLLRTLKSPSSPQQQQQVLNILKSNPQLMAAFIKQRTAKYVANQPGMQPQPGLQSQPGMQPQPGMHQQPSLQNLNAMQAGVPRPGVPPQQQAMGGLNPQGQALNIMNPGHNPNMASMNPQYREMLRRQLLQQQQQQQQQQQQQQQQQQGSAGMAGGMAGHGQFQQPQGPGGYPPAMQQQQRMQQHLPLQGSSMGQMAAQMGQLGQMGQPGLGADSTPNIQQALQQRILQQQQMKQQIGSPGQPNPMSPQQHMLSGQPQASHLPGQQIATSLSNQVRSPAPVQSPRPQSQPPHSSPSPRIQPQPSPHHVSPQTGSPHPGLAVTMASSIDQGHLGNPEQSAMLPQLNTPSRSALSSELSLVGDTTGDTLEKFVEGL

Row | SMILES | inhibition at 10 µM (HDAC6 (h)) [%] | inhibition at 10 µM (CREBBP(h)) [%] | IC50 (CREBBP(h)) [µM] | inhibition at 1 µM (CYP2C8; [1]) [%] | inhibition at 1 µM (CYP2C8; [2]) [%] | inhibition at 10 µM (CYP2C8; [2]) [%] | % Inhibition of Control Specific Binding (ATAD2A (h) bromodomain; 10 μM) | inhibition at 10 µM (ATAD2A (h) bromodomain; 10 μM) [%] | IC50 (ATAD2A (h) bromodomain; Table 9, inhibition/concentration-response curve, read-out: IC50) [µM] | inhibition at 10 µM (PRMT4 (h)) [%] | IC50 (PRMT4 (h)) [µM]
1 | CC(C)=CCC[C@H](CO)[C@@H]1CC[C@@H](C)c2c1cc(C)c(O)c2O [Compound 1, 7,8,18-trihydroxyserrulat-14-ene] | 12 | 74 | 3.9 | 12 to 24 | 14 | 76 | significant inhibitory activity | 100 | 3.1 | 90 | 4.7
2 | CC(C)=CCC[C@@H]1C(O)Oc2c(C)cc(O)c3c2[C@H]1CC[C@H]3C (stereo partly shown) [Compound 2, 5,18-epoxyserrulat-14-en-8,18-diol] | 2 | 78 | 6.1 | 12 to 24 | 12 | 52 | – | 16 | – | 84 | 5.4
3 | CC(C)=CCC[C@@H]1COc2c(C)cc(O)c3c2[C@H]1CC[C@H]3C [Compound 3, 5,18-epoxy-8-hydroxyserrulat-14-ene] | -18 | 43 | – | – | – | – | – | 9 | – | 77 | –
4 | CC(C)=CCC[C@H](C)[C@@H]1CC[C@@H](C)c2c1cc(C)c(O)c2O [Compound 4, 7,8-dihydroxyserrulat-14-ene] | – | – | – | 12 to 24 | 24 | 61 | – | – | – | – | 4.7
